Reference: patent US20110178072A1, “STEREOSPECIFICITY OF METHYLSULFINYL REDUCTION” (priority 2008, published 2011)

Tests used:
yeast fRMsr = molecular target: T1, yeast fRMsr (Saccharomyces cerevisiae, UniProt P36088); test: Activity assay of purified recombinant yeast fRMsr towards free Met sulfoxides (HPLC, OPA derivatization); assay type: biochemical, S. cerevisiae; settings: recombinant His-tagged yeast fRMsr
T1 construct: His-tag (C); made in house; host or cells: E. coli BL21 (DE3), pET21b
T1 sequence (P36088 1-180): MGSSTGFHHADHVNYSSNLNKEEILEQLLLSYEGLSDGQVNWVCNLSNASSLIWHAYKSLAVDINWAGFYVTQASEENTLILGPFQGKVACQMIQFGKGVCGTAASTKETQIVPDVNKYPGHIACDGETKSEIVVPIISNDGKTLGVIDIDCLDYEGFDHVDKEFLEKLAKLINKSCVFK
Source text: Cloning and expression of yeast fRMsr—Characterization of S. cerevisiae fRMsr (YKL069W) is described in Le, D. T., et al. (2009) Functional analysis of free methionine-R-sulfoxide reductase from Saccharomyces cerevisiae. J Biol Chem., 284(7), 4354-4364. Briefly, a yeast fRMsr cDNA, which encodes a protein homologous to fRMsr from E. coli, was amplified from S. cerevisiae genomic DNA and subcloned into pET21b vector (Novagen) using primers 5′-AAACATATGATGGGCTCATCAACCGGGTTTC-3′ (sense; SEQ ID NO:1) and 5′-AAGCGGCCGCGACACATGATTTATTAATTAATTTAGCAAG-3′ (antisense; SEQ ID NO:2). After transformation into BL21 (DE3) E. coli, the subcloned sequence was verified by DNA sequencing. Cells with the plasmid in 500 mL LB medium containing 100 μg/mL ampicillin were grown until OD600 reached 0.6-0.8, followed by addition of IPTG to 0.3 mM. Protein expression was at 30° C. for 4 hours, followed by harvesting cells by centrifugation at 4,000 rpm for 5 minutes. Cells were washed with PBS and stored at −70° C. until use.
To purify the protein, a cell pellet was dissolved in resuspension buffer (Tris-HCl, pH 7.5, 15 mM imidazole, 300 mM NaCl), and PMSF was added to a final concentration of 0.5 mM. After sonication, the supernatant was collected by centrifugation at 8,000 rpm for 30 minutes. The supernatant was loaded onto a cobalt Talon resin (Clontech) pre-equilibrated with resuspension buffer. Following washing with the same buffer, the protein was eluted with elution buffer (Tris-HCl, pH 7.5, 300 mM imidazole, 300 mM NaCl). Fractions containing yeast fRMsr were pooled together and dialyzed overnight against PBS in a dialysis cassette (Pierce).
Activity assays of fRMsr—Reaction mixture (40 μL) included 50 mM DTT, 1 mM substrate (Met-RO or Met-SO), and purified enzyme or cell lysate prepared by treatment with CelLytic™M cell lysis reagent (Sigma). 20 μL of the reaction mixture was mixed with 2 μL of TCA and subjected to OPA derivatization as described above and then injected onto the column to measure endogenous Met level in the samples. An additional 20 μL from the same original reaction mixture were incubated at 37° C. for 30 minutes and then subjected to OPA derivatization by the same procedure using TCA. After derivatization of the sample (2-5 μL) by adding OPA solution to 100 μL as a final volume, 50 μL of the mixture were subjected to an HPLC separation as described above.

mouse MsrA = molecular target: T2, mouse MsrA (Mus musculus, UniProt Q9D6Y7); test: Reduction of methylsulfinyl compounds by mouse MsrA (HPLC/GC analysis); assay type: biochemical; settings: DTT as a reductant
T2 sequence (Q9D6Y7 21-233): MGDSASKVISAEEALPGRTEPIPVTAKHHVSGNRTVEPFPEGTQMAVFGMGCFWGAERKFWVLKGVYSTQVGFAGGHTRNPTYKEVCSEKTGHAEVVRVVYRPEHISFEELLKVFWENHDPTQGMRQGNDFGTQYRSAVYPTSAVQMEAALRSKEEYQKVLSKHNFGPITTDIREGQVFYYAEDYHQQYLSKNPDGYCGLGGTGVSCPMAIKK
Procedure: (§1) The isothiocyanate group in R,S-sulforaphane reacts with sulfhydryls to form conjugated compounds. First, the compound was treated with excess DTT (which has two free sulfhydryl groups) to conjugate the isothiocyanate group of R,S-sulforaphane or S-sulforaphane with the sulfhydryl group of DTT and the resulting adducts were then used as substrates for mouse MsrA and mouse MsrB2. The reduction of the DTT-sulforaphane adduct was analyzed using HPLC analysis of the adduct with buffer (as control; FIG. 12A), mouse MsrB2 (FIG. 12B), and mouse MsrA (FIG. 12C). The arrows indicate the migration of the DTT-erucin adduct. […] FIG. 13 illustrates the HPLC analysis of the DTT-R-sulforaphane adduct incubated with buffer (as control) (FIG. 13A), mouse MsrA (FIG. 13B), and mouse MsrB2 (FIG. 13C). Again, the arrows show the migration of the DTT-erucin adduct.
(§2) Mesoridazine, which has a mild effect on treating schizophrenia, was examined to determine its reduction by yeast fRMsr, mouse MsrB2, and mouse MsrA (FIG. 14). The peak of m/z 387.6 corresponds to the molecular weight of mesoridazine and the peak of m/z 371.6 corresponds to the molecular weight of thioridazine. FIG. 14B details the HPLC analysis of mesoridazine incubated with mouse MsrB2 and DTT. FIG. 14C provides the HPLC analysis of mesoridazine incubated with yeast fRMsr and DTT. FIG. 14D illustrates the specific activities of various Msrs for the reduction of mesoridazine (left to right): mouse MsrA in the presence of DTT as a reductant, mouse MsrA in the presence of the thioredoxin reducing system, mouse MsrB2 in the presence of DTT, and yeast fRMsr in the presence of DTT.
(§3) The reduction of triclabendazole sulfoxide was examined. This compound has been used to treat liver fluke, Fasciola hepatica and Fasciola gigantica, in sheep, goat, and cattle as a form of triclabendazole. Triclabendazole can be metabolized to several different forms including triclabendazole sulfoxide, which is an oxidized form of methylsulfide group, in biological systems. FIG. 15A provides an HPLC analysis of triclabendazole sulfoxide incubated with mouse MsrA and DTT. The peak of m/z 375.2 and 377.2 correspond to the molecular weight of triclabendazole sulfoxide and the peak of m/z 359.2 and 361.2 correspond to the molecular weight of triclabendazole. FIG. 15B illustrates an HPLC analysis of triclabendazole sulfoxide incubated with mouse MsrB2 and DTT. FIG. 15C details an HPLC analysis of triclabendazole sulfoxide incubated with yeast fRMsr and DTT. FIG. 15D illustrates the specific activities of various Msrs for the reduction of triclabendazole sulfoxide (left to right): mouse MsrA in the presence of DTT as a reductant, mouse MsrA in the presence of the thioredoxin reducing system, mouse MsrB2 in the presence of DTT, and yeast fRMsr in the presence of DTT.
(§4) Another methylsulfinyl-containing drug, sulmazole, was tested as a substrate for Msrs. This drug is pharmacologically active as a cardiotonic agent and is a phosphodiesterase inhibitor. FIG. 16A details an HPLC analysis of sulmazole incubated with mouse MsrA and DTT. The peak of m/z 288.3 corresponds to the molecular weight of sulmazole and the peak of m/z 272.3 corresponds to the molecular weight of reduced form of sulmazole. FIG. 16B illustrates an HPLC analysis of sulmazole incubated with mouse MsrB2 and DTT. FIG. 16C provides an HPLC analysis of sulmazole incubated with yeast fRMsr and DTT. FIG. 16D details the specific activities of various Msrs for the reduction of sulmazole (left to right): mouse MsrA in the presence of DTT as a reductant, mouse MsrA in the presence of the thioredoxin reducing system, mouse MsrB2 in the presence of DTT, and yeast fRMsr in the presence of DTT.
DMSO, which is used as a preservative for stem cells, solvent for drugs, and a drug itself with anti-inflammatory and free radical scavenging properties, was studied for its reduction by Msrs. FIG. 17A details a GC analysis of DMSO incubated with mouse MsrA and DTT. […]

mouse MsrB2 = mouse MsrB2 (Mus musculus, UniProt Q78J03); test: Reduction of methylsulfinyl compounds by mouse MsrB2 (HPLC/GC analysis); assay type: biochemical; settings: in the presence of DTT
Chain of mouse MsrB2 (Q78J03 43-175): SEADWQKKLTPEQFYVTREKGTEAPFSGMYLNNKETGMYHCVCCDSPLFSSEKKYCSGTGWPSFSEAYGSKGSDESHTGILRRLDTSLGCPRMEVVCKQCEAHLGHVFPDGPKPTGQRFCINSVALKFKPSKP
Procedure: as §1, §2, §3
as §4, with “FIG. 16D details the specific activities of various Msrs for the reduction of sulmazole (left to right): mouse MsrA in the presence of DTT as a reductant, mouse MsrA in the presence of the thioredoxin reducing system, mouse MsrB2 in the presence of DTT, and yeast fRMsr in the presence of DTT.” left out

SK-Hep1 cells = test: Growth and morphology of SK-Hep1 cells in Met-free DMEM supplemented with Met or Met sulfoxides (MTS proliferation assay, microscopy); assay type: cell-based, human; settings: Met-free DMEM supplemented with 0.1 mM of the compound
Procedure: Cell culture—SK-Hep1 (ATCC: HTB-52™) and fRMsr-transfected SK-Hep1 cells were cultured in DMEM or Met-free DMEM (GIBCO) media, supplemented with 0.1 mM Met, 0.1 mM Met-RO, 0.1 mM Met-SO, or 0.1 mM Met-RSO. […] Thus, 0.1 mM Met sulfoxides were used in the experiments described below. Cell culture experiments, with the exception of a proliferation assay, were carried out in 6-well plates, and cells were maintained at 37° C. in a 5% CO2 atmosphere. Proliferation Assay—Cell growth was quantified using colorimetric MTS assay (Promega). Cells in regular DMEM medium were plated in 96-well plates at 5×10^3 cells/well, washed with PBS, and specialized DMEM media were added that contained Met, Met-SO, Met-RO, or Met-RSO 24 hours after plating. To assay for cell proliferation, a tetrazolium compound [3-(4,5-dimethylthiazol-2-yl)-5-(3-carboxymethoxyphenyl)-2-(4-sulfophenyl)-2H-tetrazolium, inner salt; MTS] and an electron coupling reagent (phenazine methosulfate; PMS) were mixed according to the manufacturer's protocol and then 20 μL of the mixture were added to 100 μL of phenol red-excluded media that further replaced cell culture media. After 90 minutes of incubation at 37° C. in the atmosphere of 5% CO2, cell proliferation was measured at indicated time periods from 0 to 96 hours at 450 nm in a plate reader. Direct counting of viable cells using 0.2% trypan blue was done in 6-well plates. Microscopy—A Nikon TE-300 Widefield Microscope was used to prepare images of SK-Hep1 cells grown on different Met and Met sulfoxide media. Microscopy analyses were carried out in the University of Nebraska Microscopy Core Facility.

CBS = test: Western blot analysis of CBS in SK-Hep1 cells grown on Met and Met sulfoxide media; assay type: cell-based, human; settings: SK-Hep1 cells, 0.1 mM
Procedure: Analysis of SK-Hep1 and fRMsr-transfected SK-Hep1 cells—SK-Hep1 and fRMsr-transfected SK-Hep1 cells were plated in 6-well plates at 7.5×10^4 cells/well in regular DMEM medium. The medium was changed to Met-free DMEM supplemented with either Met or individual Met sulfoxides at 24 hours after plating. Cells were then collected every 24 hours until 96 hours. Protein concentration was measured by the Bradford assay and the samples were probed by standard immunoblot assays with polyclonal MsrA (kindly provided by Bertrand Friguet), cystathionine beta synthase (CBS) (kindly provided by Ruma Banerjee), and activating transcription factor 3 (ATF3) (Santa Cruz Biotechnology) antibodies.

[1] = test system: MsrA-knockdown SK-Hep1 cells; test: Growth of MsrA-knockdown SK-Hep1 cells on Met and Met sulfoxide media; assay type: cell-based, human; settings: 0.1 mM, 96 hours
Procedure: Proliferation Assay—Cell growth was quantified using colorimetric MTS assay (Promega). Cells in regular DMEM medium were plated in 96-well plates at 5×10^3 cells/well, washed with PBS, and specialized DMEM media were added that contained Met, Met-SO, Met-RO, or Met-RSO 24 hours after plating. To assay for cell proliferation, a tetrazolium compound [3-(4,5-dimethylthiazol-2-yl)-5-(3-carboxymethoxyphenyl)-2-(4-sulfophenyl)-2H-tetrazolium, inner salt; MTS] and an electron coupling reagent (phenazine methosulfate; PMS) were mixed according to the manufacturer's protocol and then 20 μL of the mixture were added to 100 μL of phenol red-excluded media that further replaced cell culture media. After 90 minutes of incubation at 37° C. in the atmosphere of 5% CO2, cell proliferation was measured at indicated time periods from 0 to 96 hours at 450 nm in a plate reader. Direct counting of viable cells using 0.2% trypan blue was done in 6-well plates. Knockdown of MsrA in SK-Hep1 cells by siRNA—Double stranded siRNAs (Dharmacon) for targeting human MsrA mRNA were used to knockdown this gene in SK-Hep1 cells. Cells were transfected with siRNA by using DharmaFECT™ Transfection Reagent (Dharmacon) according to the manufacturer's protocol. Proliferation of these cells was assayed 60 hours after transfection in comparison with control transfected cells.

selenoproteins = test: 75Se metabolic labeling of SK-Hep1 cells grown on Met and Met sulfoxide media; assay type: cell-based, human; settings: 0.1 mM of each amino acid
Procedure: ^75 Se Metabolic labeling—SK-Hep1 cells were plated in 6-well plates at 7.5×10^4 cells/well in 1.5 mL of regular DMEM medium. After 24 hours, cells were washed with PBS and the medium was changed to modified DMEM media containing Met, Met-SO, Met-RO, or Met-RSO (0.1 mM of each amino acid). 0.01 mCi of freshly neutralized [^75Se]selenious acid (specific activity 1,000 Ci/mmol, University of Missouri Research Reactor) was added in each well at 48 hours after changing the medium and cells were incubated at 37° C. for 24 hours in 5% CO2 atmosphere, followed by harvesting the cells. Cell extracts (30 μg of total protein) were electrophoresed on 10% Bis-Tris gels and transferred onto PVDF membranes (Invitrogen). The ^75Se radioactivity pattern was visualized by using a PhosphorImager (GE Health Care).

SMILES | Activity of recombinant yeast fRMsr protein towards the substrate (yeast fRMsr) | Reduction by mouse MsrA (mouse MsrA) | Reduction by mouse MsrB2 (mouse MsrB2) | Growth of SK-Hep1 cells (SK-Hep1 cells) | Selenoprotein patterns (75Se labeling) (selenoproteins) | also measured
CN(C)c1ccc(N=Nc2ccc(S(=O)(=O)N[C@@H](CC[S@+](C)[O-])C(=O)O)cc2)cc1 [dabsyl-Met-SO] | inactive |  |  |  |  | 
CN(C)c1ccc(/N=N/c2ccc(S(=O)(=O)N[C@@H](CC[S@@+](C)[O-])C(=O)O)cc2)cc1 [dabsyl-Met-RO] | inactive |  |  |  |  | 
C[S@+]([O-])CCCCNC(=S)SCC(O)C(O)CS (stereo partly drawn) [DTT-S-sulforaphane adduct] |  | can be reduced | not by mouse MsrB2 |  |  | 
CSCC[C@H](N)C(=O)O [Met, methionine] |  |  |  | grew best | No difference was observed | Expression of CBS (CBS): maintained stable CBS levels; Growth of MsrA-deficient cells [1]: still supported their growth
C[S+]([O-])CC[C@H](N)C(=O)O (stereo partly drawn) [Met-RSO, L-Met-R,S-sulfoxide] |  |  |  | could also proliferate | No difference was observed | 
C[S@@+]([O-])CCCCNC(=S)SCC(O)C(O)CS (stereo partly drawn) [DTT-R-sulforaphane adduct] |  | cannot be reduced | cannot be reduced |  |  | 
